{"source": "patent US12594276B2", "about": "“Inhibitors of human immunodeficiency virus replication” (ViiV Healthcare UK (No.5) Limited, priority 2024, dated 2026)", "key": {"[1]": {"test_system": "recombinant NL4-3 virus (nef section replaced with Renilla luciferase gene) in MT-2 cells", "experiment": "HIV cell culture assay (antiviral activity, luciferase readout)", "assay_type": "cell-based", "details": "Renilla, NL43, MT-2 cells infected for 4-5 days with recombinant NL4-3 Renilla luciferase virus", "in_short": "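Read-out: Renilla luciferase (live-cell substrate) in infected MT-2 cells after 4-5 d with serial compound dilutions. Virus from 293T transfection of the proviral clone, titered by luciferase in MT-2. EC50 via median effect equation fit.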"}, "[2]": {"experiment": "Compound cytotoxicity, XTT-based colorimetric assay", "assay_type": "cell-based", "details": "human; uninfected MT2 cells, day 4, XTT; read-out: CC50", "in_short": "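Follows the antiviral assay procedure, but with uninfected MT2 cells. On day 4, cell viability is measured by XTT-based colorimetry, giving CC50 values.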"}}, "note": "pEC50: −log10 of the molar value."}
{"smiles": "CC(C)[C@H]1CN(CCn2nc(NS(C)(=O)=O)c3c(Cl)ccc(-n4c([C@H](Cc5cc(F)cc(F)c5)NC(=O)Cn5nc(C6CC6)c6c5C[C@@H]5C[C@H]65)nc5nc(C6CCC(F)(F)CC6)cc(C(F)F)c5c4=O)c32)CCO1", "note": "(atropisomer, axis not shown; (P)) [Example 467, N-[(1S)-1-[(3P)-3-(4-chloro-3-methanesulfonamido-1-{2-[(2S)-2-(propan-2-yl)morpholin-4-yl]ethyl}-1H-indazol-7-yl)-7-(4,4-difluorocyclohexyl)-5-(difluoromethyl)-4-oxo-3H,4H-pyrido[2,3-d]pyrimidin-2-yl]-2-(3,5-difluorophenyl)ethyl]-2-[(2S,4S)-9-cyclopropyl-7,8-diazatricyclo[4.3.0.0^2,^4]nona-1(6),8-dien-7-yl]acetamide]", "values": [{"measurement": "pEC50", "setting": "[1]", "value": 10.77}, {"measurement": "CC50 at 4 days", "setting": "[2]", "value": "> 20", "unit": "nM"}]}
{"smiles": "COCCCn1nc(NS(C)(=O)=O)c2c(Cl)ccc(-n3c([C@H](Cc4cc(F)cc(F)c4)NC(=O)Cn4nc(C(F)F)c5c4C(F)(F)[C@@H]4C[C@H]54)nc4nc(C5CCC(F)(F)CC5)cc(CN5CCC(F)(F)CC5)c4c3=O)c21", "note": "(atropisomer, axis not shown; (P)) [Example 489, N-[(1S)-1-[(3P)-3-[4-chloro-3-methanesulfonamido-1-(3-methoxypropyl)-1H-indazol-7-yl]-7-(4,4-difluorocyclohexyl)-5-[(4,4-difluoropiperidin-1-yl)methyl]-4-oxo-3H,4H-pyrido[2,3-d]pyrimidin-2-yl]-2-(3,5-difluorophenyl)ethyl]-2-[(2S,4R)-9-(difluoromethyl)-5,5-difluoro-7,8-diazatricyclo[4.3.0.0^2,4]nona-1(6),8-dien-7-yl]acetamide]", "values": [{"measurement": "pEC50", "setting": "[1]", "value": 10.74}, {"measurement": "CC50 at 4 days", "setting": "[2]", "value": "> 20", "unit": "nM"}]}
{"smiles": "Cc1cc(C2(F)CCC(F)(F)CC2)nc2nc([C@H](Cc3cc(F)cc(F)c3)NC(=O)Cn3nc(C(F)F)c4c3C(F)(F)[C@@H]3C[C@H]43)n(-c3ccc(Cl)c4c(NS(C)(=O)=O)nn([C@H](C)CN5C[C@@H](C)O[C@@H](C)C5)c34)c(=O)c12", "note": "(atropisomer, axis not shown; (P)) [Example 729, N-[(1S)-1-[(3P)-3-{4-chloro-1-[(2R)-1-[(2R,6S)-2,6-dimethylmorpholin-4-yl]propan-2-yl]-3-methanesulfonamido-1H-indazol-7-yl}-5-methyl-4-oxo-7-(1,4,4-trifluorocyclohexyl)-3H,4H-pyrido[2,3-d]pyrimidin-2-yl]-2-(3,5-difluorophenyl)ethyl]-2-[(2S,4R)-9-(difluoromethyl)-5,5-difluoro-7,8-diazatricyclo[4.3.0.0^2,^4]nona-1(6),8-dien-7-yl]acetamide]", "values": [{"measurement": "pEC50", "setting": "[1]", "value": 10.64}, {"measurement": "CC50 at 4 days", "setting": "[2]", "value": "> 20", "unit": "nM"}]}
{"smiles": "CC1(C)CN(CCn2nc(NS(C)(=O)=O)c3c(Cl)ccc(-n4c([C@H](Cc5cc(F)cc(F)c5)NC(=O)Cn5nc(C(F)F)c6c5C(F)(F)[C@@H]5C[C@H]65)nc5nc(C6CCC(F)(F)CC6)ccc5c4=O)c32)CC(C(F)(F)F)O1", "note": "(stereo partly drawn) [Example 189]", "values": [{"measurement": "pEC50", "setting": "[1]", "value": 10.46}, {"measurement": "CC50 at 4 days", "setting": "[2]", "value": "> 50", "unit": "nM"}]}
{"smiles": "CC(C)[C@@H]1CN(CCn2nc(NS(C)(=O)=O)c3c(Cl)ccc(-n4c([C@H](Cc5cc(F)cc(F)c5)NC(=O)Cn5nc(C6CC6)c6c5C[C@@H]5C[C@H]65)nc5nc(C6CCC(F)(F)CC6)ccc5c4=O)c32)CCO1", "note": "(atropisomer, axis not shown; (P)) [Example 435, N-[(1S)-1-[(3P)-3-(4-chloro-3-methanesulfonamido-1-{2-[(2R)-2-(propan-2-yl)morpholin-4-yl]ethyl}-1H-indazol-7-yl)-7-(4,4-difluorocyclohexyl)-4-oxo-3H,4H-pyrido[2,3-d]pyrimidin-2-yl]-2-(3,5-difluorophenyl)ethyl]-2-[(2S,4S)-9-cyclopropyl-7,8-diazatricyclo[4.3.0.0^2,^4]nona-1(6),8-dien-7-yl]acetamide]", "values": [{"measurement": "pEC50", "setting": "[1]", "value": 11.05}, {"measurement": "CC50 at 4 days", "setting": "[2]", "value": "> 20", "unit": "nM"}]}
{"smiles": "CS(=O)(=O)Nc1nn(CCN2CCC(F)(F)CC2)c2c(-n3c([C@H](Cc4cc(F)cc(F)c4)NC(=O)Cn4nc(C(F)F)c5c4C(F)(F)[C@@H]4C[C@H]54)nc4nc(C5CCC(F)(F)CC5)cc(CF)c4c3=O)ccc(Cl)c12", "note": "(atropisomer, axis not shown; (P)) [Example 514, N-[(1S)-1-[(3P)-3-{4-chloro-1-[2-(4,4-difluoropiperidin-1-yl)ethyl]-3-methanesulfonamido-1H-indazol-7-yl}-7-(4,4-difluorocyclohexyl)-5-(fluoromethyl)-4-oxo-3H,4H-pyrido[2,3-d]pyrimidin-2-yl]-2-(3,5-difluorophenyl)ethyl]-2-[(2S,4R)-9-(difluoromethyl)-5,5-difluoro-7,8-diazatricyclo[4.3.0.0^2,^4]nona-1(6),8-dien-7-yl]acetamide]", "values": [{"measurement": "pEC50", "setting": "[1]", "value": 10.85}, {"measurement": "CC50 at 4 days", "setting": "[2]", "value": "> 20", "unit": "nM"}]}
{"smiles": "COCCCn1nc(NS(C)(=O)=O)c2c(Cl)ccc(-n3c([C@H](Cc4cc(F)cc(F)c4)NC(=O)Cn4nc(C(F)F)c5c4C(F)(F)[C@@H]4C[C@H]54)nc4nc(C5CCC(F)(F)CC5)cc(NCCN5CC(F)(F)C5)c4c3=O)c21", "note": "(atropisomer, axis not shown; (P)) [Example 517, N-[(1S)-1-[(3P)-3-[4-chloro-3-methanesulfonamido-1-(3-methoxypropyl)-1H-indazol-7-yl]-5-{[2-(3,3-difluoroazetidin-1-yl)ethyl]amino}-7-(4,4-difluorocyclohexyl)-4-oxo-3H,4H-pyrido[2,3-d]pyrimidin-2-yl]-2-(3,5-difluorophenyl)ethyl]-2-[(2S,4R)-9-(difluoromethyl)-5,5-difluoro-7,8-diazatricyclo[4.3.0.0^2,^4]nona-1(6),8-dien-7-yl]acetamide]", "values": [{"measurement": "pEC50", "setting": "[1]", "value": 11.05}, {"measurement": "CC50 at 4 days", "setting": "[2]", "value": "> 20", "unit": "nM"}]}
{"smiles": "CS(=O)(=O)Nc1nn(CCN2CCC3(CC2)COC3)c2c(-n3c([C@H](Cc4cc(F)cc(F)c4)NC(=O)Cn4nc(C(F)F)c5c4C(F)(F)[C@@H]4C[C@H]54)nc4nc(C5CCC(F)(F)CC5)ccc4c3=O)ccc(Cl)c12", "note": "(atropisomer, axis not shown; (P)) [Example 170, N-[(1S)-1-[(3P)-3-[4-chloro-3-methanesulfonamido-1-(2-{2-oxa-7-azaspiro[3.5]nonan-7-yl}ethyl)-1H-indazol-7-yl]-7-(4,4-difluorocyclohexyl)-4-oxo-3H,4H-pyrido[2,3-d]pyrimidin-2-yl]-2-(3,5-difluorophenyl)ethyl]-2-[(2S,4R)-9-(difluoromethyl)-5,5-difluoro-7,8-diazatricyclo[4.3.0.0^2,^4]nona-1(6),8-dien-7-yl]acetamide]", "values": [{"measurement": "pEC50", "setting": "[1]", "value": 10.49}, {"measurement": "CC50 at 4 days", "setting": "[2]", "value": "> 50", "unit": "nM"}]}
{"smiles": "COCCCn1nc(NS(C)(=O)=O)c2c(Cl)ccc(-n3c([C@H](Cc4cc(F)cc(F)c4)NC(=O)Cn4nc(C(F)F)c5c4C(F)(F)[C@@H]4C[C@H]54)nc4nc(C5CCC(F)(F)CC5)cc(NC[C@@H]5CCCOC5)c4c3=O)c21", "note": "(atropisomer, axis not shown; (P)) [Example 428, N-[(1S)-1-[(3P)-3-[4-chloro-3-methanesulfonamido-1-(3-methoxypropyl)-1H-indazol-7-yl]-7-(4,4-difluorocyclohexyl)-5-({[(3S)-oxan-3-yl]methyl}amino)-4-oxo-3H,4H-pyrido[2,3-d]pyrimidin-2-yl]-2-(3,5-difluorophenyl)ethyl]-2-[(2S,4R)-9-(difluoromethyl)-5,5-difluoro-7,8-diazatricyclo[4.3.0.0^2,^4]nona-1(6),8-dien-7-yl]acetamide]", "values": [{"measurement": "pEC50", "setting": "[1]", "value": 10.70}, {"measurement": "CC50 at 4 days", "setting": "[2]", "value": "> 20", "unit": "nM"}]}
